Where two headings read alike, the source gives them in different places.
Columns and labels:
[1] = test system: Carrageenin edema of the hind paw of the rat; test: Anti-edematic effect, Carrageenin paw edema method, oral, in rats; assay type: in vivo, rat (Wistar strain); details: for Anti-edematic ratio (%) / Comparison with Control Compound (anti-edematic ratio): 100 mg/kg p.o.; for Anti-edematic ratio (%): rats, 3 hours after Carrageenin; for Comparison with Control Compound (anti-edematic ratio): Control compound (Aspirin) = 100
Description: Test animal: For the respective compounds, four male rats of the Wistar strain weighing approximately 150g were used. The test animals were made to fast for approximately 16 hours.
The anti-edematic test is carried out by determining the increase of edema due to the injection of […], in accordance with the paw edema method. [see Winter. C. A. et al; Proc. Soc. exp.
The test compounds were respectively suspended in five percent of aqueous solution of gum Arabic, and the suspensions were orally administered to the rats one hour before the injection of the Carrageenin. Activities were determined by measuring the volume of the hind paw of the rat three hours after the administration of the Carrageenin.

stomach mucosa = test: Degree of gastric trouble (visible observation of stomach mucosa); assay type: in vivo, rat (Wistar strain); details: for Degree of gastric trouble: 100 mg/kg p.o., sum of scores (0-3) of 4 rats
From the text: 2. Degree of gastric trouble
The rats used in above test of anti-edematic effects were slaughtered, and their stomaches were visibly observed in accordance with the under-mentioned bases. Measurement values were decided by summing up the respective data of 4 tests of each group.
Visible observation of the stomach mucosa
No abnormality is recognized
Slight edema, congestion or slight erosion
Scattered or limitted erosion and spotted
Heavy erosion, linear bleeding or enlarged

[2] = test system: acetic acid Writhing syndrome; test: Anti-acetic acid Writhing test, oral, in mice; assay type: in vivo, mouse (dd strain); details: Mus musculus, po, read-out: ED50 (anti-acetic acid Writhing)
Description: Comparative tests for anti-acetic acid Writhing activity in mice were made to the Compound A of the present invention and 4-amino-pyrimidine-N^1 -phenacylbromide (hereinafter referred to as Compound C), using Aspirin as a control compound. The test compounds were respectively suspended in an of aqueous solution of containing five percent of gum Arabic. Eight male mice of dd strain weighing approximately 20 - 23g were used as the test animals. The mice were made to fast for about 19 hours.
After 50 minutes or 170 minutes of administration of the test compounds, 0.1 ml of 0.7% acetic acid solution per 10 g. of the body weight of the test animal was injected intraperitoneally. Regarding the expansion of the hind paw of the mice induced during 15 minutes after the injection, a number of Writhing syndromes were encountered and recorded. Effects of the respective test compounds against the usual behavior of the mice were also observed. In the above test, 5% gum arabic solution per se was administered to the control animal.
Various doses of the respective compounds were orally administered to eight mice. After 1 or 3 hours of the administration, a anti-acetic acid Writhing test was carried out.

Stress Ulcer (Immersion) = Stress Ulcer (Immersion) at 23-25° C. for 20 hrs; assay type: in vivo, rat (Wistar strain)
Description: Using rats of Wistar strain as test animals weighing about 150 - 160 g., the anti-ulcer activities were measured in accordance with the conventional manner with respect to the following four (4) items.
i. Stress Ulcer (Immersion) at 23° - 25° C. for 20 hrs.

SMILES | anti-edematic / anti-inflammatory effect in words ([1]; 100 mg/Kg p.o.) | Anti-edematic ratio (%) [1] [%] | Comparison with Control Compound (anti-edematic ratio) [1] | degree of gastric trouble in words (stomach mucosa; 100 mg/Kg p.o.) | Degree of gastric trouble (stomach mucosa) | ED50 ([2]; 1 h) [mg/kg] | ED50 ([2]; 3 h) [mg/kg] | Inhibitory % (ulcer index) (Stress Ulcer (Immersion); 15 mg/Kg p.o.) [%] | Ulcer Index (mm) (Stress Ulcer (Immersion); 15 mg/Kg p.o.) | Inhibitory % (ulcer index) (Stress Ulcer (Immersion); 30 mg/Kg p.o.) [%] | Ulcer Index (mm) (Stress Ulcer (Immersion); 30 mg/Kg p.o., ** P<0.01)
Cc1cccc(C(=O)C[n+]2ccc(N)nc2)c1 [Compound B, 4-aminopyrimidine N^1-(m-methylphenacyl)bromide] | equal to, or more than that of the Control compound | 35.3 | 99 | extremely less than that of the Control compound | 6 | – | – | – | – | – | –
CC(=O)Oc1ccccc1C(=O)O [Aspirin, reference compound] | – | 35.8 | 100 | – | 12 | 410 | 253 | – | – | – | –
CC(C)[N+](C)(CCOC(=O)C1c2ccccc2Oc2ccccc21)C(C)C [Propantheline, reference compound] | – | – | – | – | – | – | – | 37.0 | 43.8 ± 12.9 | 61.4 | 26.8 ± 7.4
